Data from patent US6632418B2, “Radioligands and their use for identifying potassium channel modulators” (Abbott Laboratories, priority 2001, dated 2003).
Like-named read-outs stand apart in the source and are kept apart here. Values belong to the compound of their own block, whether it stands above or below them.

Experiments:
[1] = target: T1, ATP-sensitive potassium channels (Cavia porcellus, UniProt A0A286XYR9); test: Radioligand (Example 1) binding assay, guinea-pig cardiac ventricle membranes; settings: for effect on specific binding of Example 1 (in words): guinea-pig cardiac membranes
Experimental: Membrane Preparation: Guinea-pig cardiac ventricles and bladder membranes were prepared by standard procedures, Gopalakrishnan, M., Johnson, D. E., Janis, R. A. & Triggle, D. J. (1991) Journal of Pharmacology and Experimental Therapeutics, 257, 1162-71; Russ, U., Metzger, F., Kickenweiz, E., Hambrock, A., Krippeit-Drews, P. & Quast, U. (1997) Br. J. Pharmacol., 122, 1119-1126. Briefly, ventricles and bladders were quickly removed from male guinea-pigs (Charles River) and placed in ice-cold binding buffer. Tissues were cleansed of adherent connective tissue, chopped into small pieces and disrupted using Tekmar polytron in about 15-vol./g tissue weight. Homogenates were centrifuged at 45,000×g and the membrane pellets were resuspended in the assay buffer. Membrane preparations from other tissues, cells, both clonal and transfected with KATP subunits, may also be used. Clonal cell lines or transfected cell lines can be cultured by standard tissue culture techniques. When cells were confluent, membrane preparations were made by removal of media followed by scraping the monolayer in ice-cold Tris HCl buffer (pH 7.2). The suspension was then centrifuged at 45,000×g for 20 minutes and the pellet was resuspended in the assay buffer for use in radioligand assays.
Binding Assay: A radioligand of formula (I) such as 9-(4-fluoro-3-[I^125]iodophenyl)-2,3,5,9-tetrahydro-4H-pyrano[3,4-b]thieno[2,3-e]pyridin-8(7H)-one 1,1-dioxide (Example 1) (specific activity, 2000 Ci/mmol) was stored in ethanol. Prior to use, the desired amount of Example 1 was dried under a gentle stream of nitrogen gas and reconstituted in the assay buffer (usually prepared as a 10×stock). Guinea-pig ventricle membranes were incubated in a total 0.25 mL volume of HEPES buffer (composition, NaCl, 139 mM; KCl, 5 mM, MgCl2, 25 mM; CaCl2, 1.25 mM; pH 7.4 at 25° C.) containing an ATP regenerating system (creatine phosphate (40 mM), creatine phosphokinase (100 enzyme units) and varying concentrations of Na2ATP (0.01-3 mM) with Example 1 and varying concentrations of test compounds at 37° C. for 90 minutes. These conditions have been previously employed by Gopalakrishnan et al., 1991 (see above), hereby incorporated by reference, wherein the levels of ATP were consistently maintained since free ADP is converted back to ATP by creatine phosphate and creatine is regenerated to creatine phosphate by the enzyme creatine phosphokinase.
Saturation binding of Example 1 was performed with varying concentrations of Example 1. For inhibition assays, samples were incubated in a final volume of 0.25 mL of buffer containing 1-2 nM of Example 1 with varying concentrations of the test compounds. Incubations were terminated by rapid vacuum filtration through GF/B filters followed by rinsing twice with ice-cold 50 mM Tris HCl (pH 7.4). Radioactivity bound to the filters was assessed by gamma counting. Specific radioligand binding is defined by the inclusion of 10 μM of unlabeled Example 1 and was obtained by subtracting the nonspecific binding from the total binding to membranes and filters.
Membrane protein concentration was determined by the method of Lowry et al Gopalakrishnan, M., Triggle, D. J., Rutledge, A., Kwon, Y. W., Bauer, J. A. & Fung, H. L. (1991) Am. J. Physiol., 261, H1979-H1987; Janis, R. A., Maurer, S. C., Sarmiento, J. G., Bolger, G. T. & Triggle, D. J. (1982). Eur. J. Pharmacol., 82, 191-4.
The equilibrium dissociation constant (KD) and maximal density of binding sites (Bmax) of Example 1 was determined by non-linear regression of the saturation binding isotherm. The Ki values were calculated from the concentration inhibition curve by the method of Cheng and Prusoff (1973) Biochem.Pharmacol.,22, 3099-3108. Data is presented as means±S.E.M.

[2] = target: T1, ATP-sensitive potassium channels; test: as above; settings: without ATP regenerating system
[3] = target: ATP-sensitive potassium channel; test: Comparison of the profile of the novel radioligand with [^3H]P1075 in membrane preparations; format: binding; settings: radioligand comparison table; read-out: Affinity
[4] = quantity not given, Ki per method, mean±S.E.M., read-out: displacement of specific Example 1 binding by KATP channel blockers
[5] = cardiac membranes, in the presence of the ATP regenerating system, Cheng-Prusoff, read-out: Ki value for displacement of specific Example 1 binding

T1 sequence (A0A286XYR9 1-1546): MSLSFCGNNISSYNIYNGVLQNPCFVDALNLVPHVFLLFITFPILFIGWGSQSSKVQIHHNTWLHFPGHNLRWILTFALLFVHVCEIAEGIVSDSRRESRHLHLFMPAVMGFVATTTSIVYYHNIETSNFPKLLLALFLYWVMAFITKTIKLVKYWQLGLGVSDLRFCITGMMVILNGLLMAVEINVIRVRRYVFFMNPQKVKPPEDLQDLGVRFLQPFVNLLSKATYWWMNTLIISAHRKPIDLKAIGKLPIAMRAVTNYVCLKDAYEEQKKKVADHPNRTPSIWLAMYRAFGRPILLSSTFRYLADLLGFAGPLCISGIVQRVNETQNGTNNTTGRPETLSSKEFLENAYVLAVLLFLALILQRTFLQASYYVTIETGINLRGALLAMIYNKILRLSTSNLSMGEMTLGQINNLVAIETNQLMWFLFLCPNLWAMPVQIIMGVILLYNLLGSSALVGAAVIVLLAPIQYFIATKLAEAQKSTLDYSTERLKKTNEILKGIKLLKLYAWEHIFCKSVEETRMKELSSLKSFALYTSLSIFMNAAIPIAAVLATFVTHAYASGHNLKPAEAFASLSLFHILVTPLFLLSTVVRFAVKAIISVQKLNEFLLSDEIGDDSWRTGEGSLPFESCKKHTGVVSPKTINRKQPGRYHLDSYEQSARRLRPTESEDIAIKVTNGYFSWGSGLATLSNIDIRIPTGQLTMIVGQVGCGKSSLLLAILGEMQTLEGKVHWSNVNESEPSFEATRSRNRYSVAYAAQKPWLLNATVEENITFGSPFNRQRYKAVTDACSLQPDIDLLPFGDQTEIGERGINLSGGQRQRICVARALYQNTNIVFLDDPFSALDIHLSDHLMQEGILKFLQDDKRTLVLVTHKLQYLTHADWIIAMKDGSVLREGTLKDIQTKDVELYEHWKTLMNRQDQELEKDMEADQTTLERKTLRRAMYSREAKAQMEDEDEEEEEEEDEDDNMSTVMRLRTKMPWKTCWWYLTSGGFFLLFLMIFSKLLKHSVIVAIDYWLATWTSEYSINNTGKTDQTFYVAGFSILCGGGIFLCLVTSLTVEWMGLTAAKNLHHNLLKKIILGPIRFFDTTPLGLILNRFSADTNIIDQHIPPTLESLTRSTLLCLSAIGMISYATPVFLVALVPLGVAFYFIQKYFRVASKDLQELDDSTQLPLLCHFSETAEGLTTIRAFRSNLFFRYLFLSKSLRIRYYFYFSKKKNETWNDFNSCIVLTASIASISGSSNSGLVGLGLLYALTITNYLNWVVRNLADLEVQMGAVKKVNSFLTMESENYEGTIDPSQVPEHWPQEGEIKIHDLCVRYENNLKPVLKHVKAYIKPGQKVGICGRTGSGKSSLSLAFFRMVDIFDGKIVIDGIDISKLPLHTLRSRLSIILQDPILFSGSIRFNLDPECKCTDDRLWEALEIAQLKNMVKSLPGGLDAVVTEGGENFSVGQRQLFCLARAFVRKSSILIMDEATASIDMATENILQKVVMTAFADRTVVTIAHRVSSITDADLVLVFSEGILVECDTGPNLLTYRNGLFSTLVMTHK

Compound: CCOc1ccccc1N/C(=C\[N+](=O)[O-])NC(C)C(C)(C)C (stereo not drawn) [Bay X 9228]
effect on specific binding of Example 1 (in words) [1]: displaced

Compound: O=C1CCCC2=C1[C@H](c1ccc(F)c(Br)c1)C1=C(CCS1(=O)=O)N2 [Example A-278637]
effect on specific binding of Example 1 (in words) [1]: displaced

Compound: CC1(C)Oc2ccc(C#N)cc2C(N2CCCC2=O)C1O (stereo not drawn) [cromakalim]
effect on specific binding of Example 1 (in words) [1]: displaced

Compound: O=C1COCC2=C1C(c1ccc(F)c(I)c1)C1=C(CCS1(=O)=O)N2 (stereo not drawn) [Unlabeled Example 1, 9-(4-fluoro-3-iodophenyl)-2,3,5,9-tetrahydro-4H-pyrano[3,4-b]thieno[2,3-e]pyridin-8(7H)-one 1,1-dioxide]
Ki [1, 5]: 5.8 nM

Compound: CCC(C)(C)N=C(NC#N)Nc1cccnc1 [Example P1075]
effect on specific binding of Example 1 (in words) [1]: displaced

Compound: O=C1COCC2=C1C(c1ccc(F)c([125I])c1)C1=C(CCS1(=O)=O)N2 (stereo not drawn) [Example 1, 9-(4-fluoro-3-[I^125]iodophenyl)-2,3,5,9-tetrahydro-4H-pyrano[3,4-b]thieno[2,3-e]pyridin-8(7H)-one 1,1-dioxide]
maximum binding capacity (Bmax) ([1]; guinea-pig cardiac ventricle membranes, saturation binding, n=3): 107.7±12.7 femtomol/mg protein
specific binding in the presence of just ATP alone [2]: no specific binding was detected

Compound: O=C1COCC2=C1C(c1ccc(F)c(I)c1)C1=C(CCS1(=O)=O)N2 (stereo not drawn) [Example 1, 9-(4-fluoro-3-[I^125]iodophenyl)-2,3,5,9-tetrahydro-4H-pyrano[3,4-b]thieno[2,3-e]pyridin-8(7H)-one 1,1-dioxide]
Kd [3]: 5 nM
Ki [1, 5]: 5.8 nM
Kd ([1]; guinea-pig cardiac ventricle membranes, single set of saturable sites, n=3, mean±S.E.M., read-out: KD value (equilibrium dissociation constant), saturation binding): 5.83 ± 0.77 nM

Next, values leading:

Ki [1, 4]: 4500 ± 400 nM
Compound: Cc1cnc(C(=O)NCCc2ccc(S(=O)(=O)NC(=O)NC3CCCCC3)cc2)cn1 [glipizide]

Ki ([1]; cardiac membranes, rank order potency, read-out: Ki value for displacement of Example 1 binding): 44800 nM
Compound: CC1=NS(=O)(=O)c2cc(Cl)ccc2N1 [diazoxide]

effect on specific binding of Example 1 (in words) [1]: displaced
Compound: CC(N/C(=N\C#N)Nc1ccncc1)C(C)(C)C (stereo not drawn) [pinacidil]

effect on specific binding of Example 1 (in words) [1]: unaffected
Compound: COC(=O)C1=C(C)NC(C)=C(C(=O)OC(C)C)C1c1cccc2nonc12 (stereo not drawn) [isradipine]

Ki [1, 4]: 47.6 ± 9.4 nM
Compound: COc1ccc(Cl)cc1C(=O)NCCc1ccc(S(=O)(=O)NC(=O)NC2CCCCC2)cc1 [glyburide]
